Results from patent US7605227B2, “Melanoma antigen peptide analogues” (MannKind Corporation, priority 2005, dated 2009).
“Also recorded” adds a separate entry of the source. Square brackets hold non-standard residues; d marks the D form. Ends that are not written are not given here. Peptide text beside a SMILES is read from it. Phe(4-F) = N[C@@H](Cc1ccc(F)cc1)C(=O)O

Tested on: T cell lines against a natural (non-mutated) epitope (SSX-241-49)
Assay: Cross-reactivity and functional avidity: IFN-gamma from T cell lines against natural SSX-2 41-49 epitope;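 note: peptide analogs tested ex vivo with competent APCs, IFN-gamma in supernatant measured by ELISA, readouts include minimal triggering concentration, peak effect and concentration at peak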
Assay type: cell-based, HHD transgenic mice
Conditions: for Cross-reactivity and fct avidity (native to analogs)*: IFN-gamma from T cell line raised against native SSX-2 41-49, native = 1, lower = more active

Compound	Cross-reactivity and fct avidity (native to analogs)*	cross-reactivity / IFN-gamma inducing activity relative to wild-type, in words (SSX-2 41-49 analogs, wild-type specific T cells)
CC[C@H](NC(=O)[C@@H](N)CCCCN)C(=O)N[C@@H](CO)C(=O)N[C@@H](CCC(=O)O)C(=O)N[C@@H](CCCCN)C(=O)N[C@H](C(=O)N[C@@H](Cc1ccccc1)C(=O)N[C@@H](Cc1ccc(O)cc1)C(=O)N[C@H](C(=O)O)C(C)C)[C@@H](C)CC [SSX2 41-49 (A42(Abu)), KAbuSEKIFYV]	0.3	–
CC[C@H](C)[C@H](NC(=O)[C@H](CCCCN)NC(=O)[C@H](CCC(=O)O)NC(=O)[C@H](CO)NC(=O)C(C)(C)NC(=O)[C@@H](N)CCCCN)C(=O)N[C@@H](Cc1ccccc1)C(=O)N[C@@H](Cc1ccc(O)cc1)C(=O)N[C@H](C(=O)O)C(C)C [SSX2 41-49 (A42(Aib)), KAibSEKIFYV]	3	–
CC[C@H](C)[C@H](NC(=O)[C@H](CCCCN)NC(=O)[C@H](CCC(=O)O)NC(=O)[C@H](CO)NC(=O)[C@H](Cc1ccc2ccccc2c1)NC(=O)[C@@H](N)CCCCN)C(=O)N[C@@H](Cc1ccccc1)C(=O)N[C@@H](Cc1ccc(O)cc1)C(=O)N[C@H](C(=O)O)C(C)C [SSX2 41-49 (A42(Nal-2)), KNal-2SEKIFYV]	3	–
CCCC[C@H](NC(=O)[C@@H](N)CCCCN)C(=O)N[C@@H](CO)C(=O)N[C@@H](CCC(=O)O)C(=O)N[C@@H](CCCCN)C(=O)N[C@H](C(=O)N[C@@H](Cc1ccccc1)C(=O)N[C@@H](Cc1ccc(O)cc1)C(=O)N[C@H](C(=O)O)C(C)C)[C@@H](C)CC [SSX2 41-49 (A42(Nle)), KNleSEKIFYV]	0.1	–
CCC[C@H](NC(=O)[C@@H](N)CCCCN)C(=O)N[C@@H](CO)C(=O)N[C@@H](CCC(=O)O)C(=O)N[C@@H](CCCCN)C(=O)N[C@H](C(=O)N[C@@H](Cc1ccccc1)C(=O)N[C@@H](Cc1ccc(O)cc1)C(=O)N[C@H](C(=O)O)C(C)C)[C@@H](C)CC [SSX2 41-49 (A42(Nva)), KNvaSEKIFYV]	0.1	–
CC[C@H](C)[C@H](NC(=O)[C@H](CCCCN)NC(=O)[C@H](CCC(=O)O)NC(=O)[C@H](CO)NC(=O)[C@H](CC(C)C)NC(=O)[C@@H](N)CCCCN)C(=O)N[C@@H](Cc1ccccc1)C(=O)N[C@@H](Cc1ccc(O)cc1)C(=O)N[C@H](C(=O)O)C(C)C [SSX2 41-49 (A42L)]	0.03	–
CC[C@H](C)[C@H](NC(=O)[C@H](CCCCN)NC(=O)[C@H](CCC(=O)O)NC(=O)[C@H](CO)NC(=O)[C@H](CC(C)C)NC(=O)[C@H](N)CCCCN)C(=O)N[C@@H](Cc1ccccc1)C(=O)N[C@@H](Cc1ccc(O)cc1)C(=O)N[C@H](C(=O)O)C(C)C [SSX2 41-49 (K41(D-Lys), A42L)]	10	–
CC[C@H](C)[C@H](NC(=O)[C@H](CCCCN)NC(=O)[C@H](CCC(=O)O)NC(=O)[C@H](CO)NC(=O)[C@@H](NC(=O)[C@H](N)CCCCN)C(C)C)C(=O)N[C@@H](Cc1ccccc1)C(=O)N[C@@H](Cc1ccc(O)cc1)C(=O)N[C@H](C(=O)O)C(C)C [SSX2 41-49 (K41(D-Lys), A42V)]	10	–
CC[C@H](C)[C@H](NC(=O)[C@H](CCCCN)NC(=O)[C@H](CCC(=O)O)NC(=O)[C@H](CO)NC(=O)[C@H](C)NC(=O)[C@@H](N)Cc1ccc(F)cc1)C(=O)N[C@@H](Cc1ccccc1)C(=O)N[C@@H](Cc1ccc(O)cc1)C(=O)N[C@H](C(=O)O)C(C)C [SSX2 41-49 (K41(Phe-4F))] (H-[Phe(4-F)]ASEKIFYV-OH)	3	–
CC[C@H](C)[C@H](NC(=O)[C@H](CCCCN)NC(=O)[C@H](CCC(=O)O)NC(=O)[C@H](CO)NC(=O)[C@H](CC(C)C)NC(=O)[C@@H](N)Cc1ccccc1)C(=O)N[C@@H](Cc1ccccc1)C(=O)N[C@@H](Cc1ccc(O)cc1)C(=O)N[C@H](C(=O)O)C(C)C [SSX2 41-49 (K41F, A42L)]	0.3	–
CC[C@H](C)[C@H](NC(=O)[C@H](CCCCN)NC(=O)[C@H](CCC(=O)O)NC(=O)[C@H](CO)NC(=O)[C@H](CCSC)NC(=O)[C@@H](N)Cc1ccccc1)C(=O)N[C@@H](Cc1ccccc1)C(=O)N[C@@H](Cc1ccc(O)cc1)C(=O)N[C@H](C(=O)O)C(C)C [SSX2 41-49 (K41F, A42M)]	3	–
CC[C@H](C)[C@H](NC(=O)[C@H](CCCCN)NC(=O)[C@H](CO)NC(=O)[C@H](CO)NC(=O)[C@@H](NC(=O)[C@@H](N)Cc1ccccc1)C(C)C)C(=O)N[C@@H](Cc1ccccc1)C(=O)N[C@@H](Cc1ccc(O)cc1)C(=O)N[C@H](C(=O)O)C(C)C [SSX2 41-49 (K41F, A42V, E44S)]	>10	–
CC[C@H](C)[C@H](NC(=O)[C@H](CCCCN)NC(=O)[C@@H](NC(=O)[C@H](CO)NC(=O)[C@@H](NC(=O)[C@@H](N)Cc1ccccc1)C(C)C)[C@@H](C)O)C(=O)N[C@@H](Cc1ccccc1)C(=O)N[C@@H](Cc1ccc(O)cc1)C(=O)N[C@H](C(=O)O)C(C)C [SSX2 41-49 (K41F, A42V, E44T)]	>10	–
CC[C@H](C)[C@H](NC(=O)[C@H](CCCCN)NC(=O)[C@H](CCC(=O)O)NC(=O)[C@H](CO)NC(=O)[C@@H](NC(=O)[C@@H](N)Cc1ccccc1)C(C)C)C(=O)N[C@@H](Cc1ccccc1)C(=O)N[C@@H](Cc1ccc(O)cc1)C(=O)N[C@@H](C)C(=O)O [SSX2 41-49 (K41F, A42V, V49A)]	1	–
CC[C@H](NC(=O)[C@H](Cc1ccc(O)cc1)NC(=O)[C@H](Cc1ccccc1)NC(=O)[C@@H](NC(=O)[C@H](CCCCN)NC(=O)[C@H](CCC(=O)O)NC(=O)[C@H](CO)NC(=O)[C@@H](NC(=O)[C@@H](N)Cc1ccccc1)C(C)C)[C@@H](C)CC)C(=O)O [SSX2 41-49 (K41F, A42V, V49Abu)]	1	–
CC[C@H](C)[C@H](NC(=O)[C@H](CCCCN)NC(=O)[C@H](CCC(=O)O)NC(=O)[C@H](CO)NC(=O)[C@@H](NC(=O)[C@@H](N)Cc1ccccc1)C(C)C)C(=O)N[C@@H](Cc1ccccc1)C(=O)N[C@@H](Cc1ccc(O)cc1)C(=O)N[C@@H](CC(C)C)C(=O)O [SSX2 41-49 (K41F, A42V, V49L)]	>10	–
CC[C@H](C)[C@H](NC(=O)[C@H](CCCCN)NC(=O)[C@H](CCC(=O)O)NC(=O)[C@H](CO)NC(=O)[C@@H](NC(=O)[C@@H](N)Cc1ccccc1)C(C)C)C(=O)N[C@@H](Cc1ccccc1)C(=O)N[C@@H](Cc1ccc(O)cc1)C(=O)N(C)[C@H](C(=O)O)C(C)C [SSX2 41-49 (K41F, A42V, V49MeVal)]	10	–
CCCC[C@H](NC(=O)[C@H](Cc1ccc(O)cc1)NC(=O)[C@H](Cc1ccccc1)NC(=O)[C@@H](NC(=O)[C@H](CCCCN)NC(=O)[C@H](CCC(=O)O)NC(=O)[C@H](CO)NC(=O)[C@@H](NC(=O)[C@@H](N)Cc1ccccc1)C(C)C)[C@@H](C)CC)C(=O)O [SSX2 41-49 (K41F, A42V, V49Nle)]	>10	–

Compound	Cross-reactivity and fct avidity (native to analogs)*	cross-reactivity / IFN-gamma inducing activity relative to wild-type, in words (SSX-2 41-49 analogs, wild-type specific T cells)
CCC[C@H](NC(=O)[C@H](Cc1ccc(O)cc1)NC(=O)[C@H](Cc1ccccc1)NC(=O)[C@@H](NC(=O)[C@H](CCCCN)NC(=O)[C@H](CCC(=O)O)NC(=O)[C@H](CO)NC(=O)[C@@H](NC(=O)[C@@H](N)Cc1ccccc1)C(C)C)[C@@H](C)CC)C(=O)O [SSX2 41-49 (K41F, A42V, V49Nva)]	0.1	–
CC[C@H](C)[C@H](NC(=O)[C@H](CCCCN)NC(=O)[C@H](CCC(=O)O)NC(=O)[C@H](CO)NC(=O)[C@H](C)NC(=O)[C@@H](N)Cc1c[nH]c2ccccc12)C(=O)N[C@@H](Cc1ccccc1)C(=O)N[C@@H](Cc1ccc(O)cc1)C(=O)N[C@H](C(=O)O)C(C)C [SSX2 41-49 (K41W)]	>10	–
CC[C@H](C)[C@H](NC(=O)[C@H](CCCCN)NC(=O)[C@H](CCC(=O)O)NC(=O)[C@H](CO)NC(=O)[C@@H](NC(=O)[C@@H](N)Cc1c[nH]c2ccccc12)[C@@H](C)CC)C(=O)N[C@@H](Cc1ccccc1)C(=O)N[C@@H](Cc1ccc(O)cc1)C(=O)N[C@H](C(=O)O)C(C)C [SSX2 41-49 (K41W, A42I)]	0.1	–
CC[C@H](C)[C@H](NC(=O)[C@H](CCCCN)NC(=O)[C@H](CCC(=O)O)NC(=O)[C@H](CO)NC(=O)[C@@H](NC(=O)[C@@H](N)Cc1ccc(O)cc1)[C@@H](C)CC)C(=O)N[C@@H](Cc1ccccc1)C(=O)N[C@@H](Cc1ccc(O)cc1)C(=O)N[C@H](C(=O)O)C(C)C [SSX2 41-49 (K41Y, A42I)]	1	–
CC[C@H](C)[C@H](NC(=O)[C@H](CCCCN)NC(=O)[C@H](CCC(=O)O)NC(=O)[C@H](CO)NC(=O)[C@H](C)NC(=O)[C@@H](N)CCCCN)C(=O)N[C@@H](Cc1ccccc1)C(=O)N[C@@H](Cc1ccc(O)cc1)C(=O)N[C@H](C(=O)O)C(C)C [SSX2 41-49, reference compound]	1	–
FVSEKIFY(Aib) [SSX2 41-49 (K41F, A42V, V49Aib)]	>10	–
FVSEKLFTA	>10	–
FVSEKMFYV [SSX2 41-49 (K41F, A42V, I46M)]	>10	–
FVSEKVFYV (T cell peptide epitope analog) [SSX2 41-49 (K41F, A42V, I46V)]	1	–
FVSNKIFYV [SSX2 41-49 (K41F, A42V, E44N)]	>10	–
K(D-Ala)SEKIFYV [SSX2 41-49 (A42(D-Ala))]	10	–
K(D-Val)SEKIFYV [SSX2 41-49 (A42(D-Val))]	3	–
KASEKIFYV [SSX2 41-49-NH2]	>10	–
KASEKIFYVY [SSX-241-50, wild-type SSX-2 41-50 decamer peptide, reference compound]	–	significantly less active; also recorded: no immunological activity
KLSEKIFYV [SSX2 41-49-NH2 (A42L)]	3	–
KNal-1SEKIFYV [SSX2 41-49 (A42(Nal-1))]	>10	–
KVSEKIFYI [SSX2 41-49 (A42V, V491)]	0.3	–
KVSEKIFYV [SSX2 41-49-NH2 (A42V)]	10	–
